Each compound was assayed against T1, AAK1 (Homo sapiens, UniProt Q2M2I8) (assay: HEK281 cell-based assay (phospho-mu2 Western blot in transfected HEK293F cells)). Conditions: 3 hours incubation, read-out: CBA IC50.
T1 construct: HA; expressed in transfected cells; host or cells: HEK293F
In short: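 After 3 hours at 37° C. with compound (five 3-fold-spaced concentrations, DMEM+0.5% FBS), transiently transfected HEK293F cells expressing full-length human AAK1 and Flag-tagged mu2 were lysed. mu2 phosphorylation was read by anti-phospho-mu2 immunoblot, normalized against total mu2 by anti-Flag blot.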

T1 sequence (Q2M2I8 1-863 isoform Q2M2I8-2): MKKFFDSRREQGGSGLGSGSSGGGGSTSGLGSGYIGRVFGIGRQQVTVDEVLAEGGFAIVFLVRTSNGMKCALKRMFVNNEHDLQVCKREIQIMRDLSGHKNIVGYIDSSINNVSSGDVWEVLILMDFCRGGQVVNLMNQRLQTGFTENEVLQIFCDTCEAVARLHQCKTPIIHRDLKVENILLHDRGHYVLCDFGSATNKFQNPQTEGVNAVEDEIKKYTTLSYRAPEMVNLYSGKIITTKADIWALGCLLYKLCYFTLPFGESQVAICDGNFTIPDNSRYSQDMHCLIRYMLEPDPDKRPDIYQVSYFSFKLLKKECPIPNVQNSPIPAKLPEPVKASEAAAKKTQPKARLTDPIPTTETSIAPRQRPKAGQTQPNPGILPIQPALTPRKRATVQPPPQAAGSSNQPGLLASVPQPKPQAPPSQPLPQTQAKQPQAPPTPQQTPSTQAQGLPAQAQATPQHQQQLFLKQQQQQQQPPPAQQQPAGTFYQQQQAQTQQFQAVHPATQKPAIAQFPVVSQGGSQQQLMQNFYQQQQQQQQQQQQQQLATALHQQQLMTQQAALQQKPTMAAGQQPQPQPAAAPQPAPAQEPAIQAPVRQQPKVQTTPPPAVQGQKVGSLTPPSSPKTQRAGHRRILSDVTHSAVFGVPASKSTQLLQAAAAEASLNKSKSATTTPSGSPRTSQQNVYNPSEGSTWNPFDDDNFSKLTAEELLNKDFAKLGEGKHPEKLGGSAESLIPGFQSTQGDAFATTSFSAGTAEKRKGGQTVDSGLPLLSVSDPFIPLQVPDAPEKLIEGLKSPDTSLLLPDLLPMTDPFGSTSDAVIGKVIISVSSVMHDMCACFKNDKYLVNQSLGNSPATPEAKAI

IC50 | Structure (SMILES)
≤ 100 nM | CCCCNc1ccc2ncc(-c3ccc(C(=O)NCCN(C)C)cc3)n2n1 [4-(6-(butylamino)imidazo[1,2-b]pyridazin-3-yl)-N-(2-(dimethylamino)ethyl)benzamide]
≤ 100 nM | CCCCNc1ccc2ncc(-c3ccc(C(=O)NCCNC)cc3)n2n1 [4-(6-(butylamino)imidazo[1,2-b]pyridazin-3-yl)-N-(2-(methylamino)ethyl)benzamide]
≤ 100 nM | CCCCNc1ccc2ncc(-c3ccc(C(=O)NCCN4CCCC4)cc3)n2n1 [4-(6-(butylamino)imidazo[1,2-b]pyridazin-3-yl)-N-(2-(pyrrolidin-1-yl)ethyl)benzamide]
≤ 100 nM | CCCCNc1ccc2ncc(-c3ccc(C(N)=O)cc3)n2n1 [4-(6-(butylamino)imidazo[1,2-b]pyridazin-3-yl)benzamide]
≤ 100 nM | CC(C)(O)CCNc1ccc2ncc(-c3ccc(CN)cc3)n2n1 [4-((3-(4-(aminomethyl)phenyl)imidazo[1,2-b]pyridazin-6-yl)amino)-2-methylbutan-2-ol]
≤ 1000 nM | CCCCNc1ccc2ncc(-c3ccc(C(N)=O)s3)n2n1 [5-(6-(butylamino)imidazo[1,2-b]pyridazin-3-yl)thiophene-2-carboxamide]
≤ 1000 nM | CCCNc1ccc2ncc(-c3ccc(C=O)s3)n2n1 [5-(6-(propylamino)imidazo[1,2-b]pyridazin-3-yl)thiophene-2-carbaldehyde]
≤ 1000 nM | CCCCNc1ccc2ncc(C(=O)Nc3cn[nH]c3)n2n1 [6-(butylamino)-N-(1H-pyrazol-4-yl)imidazo[1,2-b]pyridazine-3-carboxamide]
≤ 100 nM | CCOC(=O)N1CCC[C@H]1CNc1ccc2ncc(-c3ccc(C4CCCN4)cc3)n2n1 (stereo partly drawn) [(2S)-ethyl 2-(((3-(4-(pyrrolidin-2-yl)phenyl)imidazo[1,2-b]pyridazin-6-yl)amino)methyl)pyrrolidine-1-carboxylate]
≤ 100 nM | COC(=O)N1CCC[C@H]1CNc1ccc2ncc(-c3ccc(C4CCCN4)cc3)n2n1 (stereo partly drawn) [(2S)-methyl 2-(((3-(4-(pyrrolidin-2-yl)phenyl)imidazo[1,2-b]pyridazin-6-yl)amino)methyl)pyrrolidine-1-carboxylate]
≤ 1000 nM | CCCCNc1ccc2ncc(-c3ccc(C(=O)N4CCC(N)CC4)cc3)n2n1 [(4-aminopiperidin-1-yl)(4-(6-(butylamino)imidazo[1,2-b]pyridazin-3-yl)phenyl)methanone]
≤ 100 nM | CC(C)OC(=O)N(C)CCNc1ccc2ncc(-c3ccc([C@H]4CCCN4)cc3)n2n1 [(R)-isopropyl methyl(2-((3-(4-(pyrrolidin-2-yl)phenyl)imidazo[1,2-b]pyridazin-6-yl)amino)ethyl)carbamate]
≤ 1000 nM | CCCCNc1ccc2ncc(-c3ccc([C@H]4CCCN4)cc3)n2n1 [(R)—N-butyl-3-(4-(pyrrolidin-2-yl)phenyl)imidazo[1,2-b]pyridazin-6-amine]
≤ 10 nM | COc1ccccc1-c1cnc2ccc(NC[C@@H]3CCCN3C(=O)CC(C)C)nn12 [(S)-1-(2-(((3-(2-methoxyphenyl)imidazo[1,2-b]pyridazin-6-yl)amino)methyl)pyrrolidin-1-yl)-3-methylbutan-1-one]
≤ 100 nM | COc1ccccc1-c1cnc2ccc(NC[C@@H]3CCCN3C(C)=O)nn12 [(S)-1-(2-(((3-(2-methoxyphenyl)imidazo[1,2-b]pyridazin-6-yl)amino)methyl)pyrrolidin-1-yl)ethanone]
≤ 10 nM | COc1cnccc1-c1cnc2ccc(NC[C@@H]3CCCN3C(=O)CC(C)C)nn12 [(S)-1-(2-(((3-(3-methoxypyridin-4-yl)imidazo[1,2-b]pyridazin-6-yl)amino)methyl)pyrrolidin-1-yl)-3-methylbutan-1-one]
≤ 100 nM | COc1cnccc1-c1cnc2ccc(NC[C@@H]3CCCN3C(C)=O)nn12 [(S)-1-(2-(((3-(3-methoxypyridin-4-yl)imidazo[1,2-b]pyridazin-6-yl)amino)methyl)pyrrolidin-1-yl)ethanone]
≤ 10 nM | CC(C)CC(=O)N1CCC[C@H]1CNc1ccc2ncc(-c3ccc(CN)cc3)n2n1 [(S)-1-(2-(((3-(4-(aminomethyl)phenyl)imidazo[1,2-b]pyridazin-6-yl)amino)methyl)pyrrolidin-1-yl)-3-methylbutan-1-one]
≤ 100 nM | CC(C)CC(=O)N1CCC[C@H]1CNc1ccc2ncc(Br)n2n1 [(S)-1-(2-(((3-bromoimidazo[1,2-b]pyridazin-6-yl)amino)methyl)pyrrolidin-1-yl)-3-methylbutan-1-one]
≤ 100 nM | CCCCNc1ccc2ncc(-c3ccc(CNC(=O)[C@@H](N)CC(C)C)cc3)n2n1 [(S)-2-amino-N-(4-(6-(butylamino)imidazo[1,2-b]pyridazin-3-yl)benzyl)-4-methylpentanamide]
≤ 100 nM | NCc1ccc(-c2cnc3ccc(NC[C@@H]4CCCO4)nn23)cc1 [(S)-3-(4-(aminomethyl)phenyl)-N-((tetrahydrofuran-2-yl)methyl)imidazo[1,2-b]pyridazin-6-amine]

IC50 | Structure (SMILES)
≤ 100 nM | CC(C)CC(=O)N1CCC[C@H]1CNc1ccc2ncc(-c3ccncc3)n2n1 [(S)-3-methyl-1-(2-(((3-(pyridin-4-yl)imidazo[1,2-b]pyridazin-6-yl)amino)methyl)pyrrolidin-1-yl)butan-1-one]
≤ 100 nM | CCCCNc1ccc2ncc(-c3ccc([C@@H]4CCCN4)cc3)n2n1 [(S)-N-butyl-3-(4-(pyrrolidin-2-yl)phenyl)imidazo[1,2-b]pyridazin-6-amine]
≤ 100 nM | CCOC(=O)N1CCC[C@H]1CNc1ccc2ncc(-c3ccccc3OC)n2n1 [(S)-ethyl 2-(((3-(2-methoxyphenyl)imidazo[1,2-b]pyridazin-6-yl)amino)methyl)pyrrolidine-1-carboxylate]
≤ 100 nM | CCOC(=O)N1CCC[C@H]1CNc1ccc2ncc(-c3ccncc3OC)n2n1 [(S)-ethyl 2-(((3-(3-methoxypyridin-4-yl)imidazo[1,2-b]pyridazin-6-yl)amino)methyl)pyrrolidine-1-carboxylate]
≤ 10 nM | CCOC(=O)N1CCC[C@H]1CNc1ccc2ncc(-c3ccc(CN)cc3)n2n1 [(S)-ethyl 2-(((3-(4-(aminomethyl)phenyl)imidazo[1,2-b]pyridazin-6-yl)amino)methyl)pyrrolidine-1-carboxylate]
≤ 100 nM | CCOC(=O)N1CCC[C@H]1CNc1ccc2ncc(-c3ccncc3)n2n1 [(S)-ethyl 2-(((3-(pyridin-4-yl)imidazo[1,2-b]pyridazin-6-yl)amino)methyl)pyrrolidine-1-carboxylate]
≤ 100 nM | CCOC(=O)N1CCC[C@H]1CNc1ccc2ncc(Br)n2n1 [(S)-ethyl 2-(((3-bromoimidazo[1,2-b]pyridazin-6-yl)amino)methyl)pyrrolidine-1-carboxylate]
≤ 100 nM | CCOC(=O)N(C)[C@H]1CCN(c2ccc3ncc(-c4ccc(C)nc4OC)n3n2)C1 [(S)-ethyl (1-(3-(2-methoxy-6-methylpyridin-3-yl)imidazo[1,2-b]pyridazin-6-yl)pyrrolidin-3-yl)(methyl)carbamate]
≤ 10 nM | COc1ccccc1-c1cnc2ccc(NC[C@@H]3CCCN3C(=O)OC(C)C)nn12 [(S)-isopropyl 2-(((3-(2-methoxyphenyl)imidazo[1,2-b]pyridazin-6-yl)amino)methyl)pyrrolidine-1-carboxylate]
≤ 10 nM | COc1cnccc1-c1cnc2ccc(NC[C@@H]3CCCN3C(=O)OC(C)C)nn12 [(S)-isopropyl 2-(((3-(3-methoxypyridin-4-yl)imidazo[1,2-b]pyridazin-6-yl)amino)methyl)pyrrolidine-1-carboxylate]
≤ 10 nM | CC(C)OC(=O)N1CCC[C@H]1CNc1ccc2ncc(-c3ccc(CN)cc3)n2n1 [(S)-isopropyl 2-(((3-(4-(aminomethyl)phenyl)imidazo[1,2-b]pyridazin-6-yl)amino)methyl)pyrrolidine-1-carboxylate]
≤ 100 nM | C=C(C)c1cnc2ccc(NC[C@@H]3CCCN3C(=O)OC(C)C)nn12 [(S)-isopropyl 2-(((3-(prop-1-en-2-yl)imidazo[1,2-b]pyridazin-6-yl)amino)methyl)pyrrolidine-1-carboxylate]
≤ 1000 nM | CC(C)OC(=O)N1CCC[C@H]1CNc1ccc2ncc(Br)n2n1 [(S)-isopropyl 2-(((3-bromoimidazo[1,2-b]pyridazin-6-yl)amino)methyl)pyrrolidine-1-carboxylate]
≤ 1000 nM | CC(C)OC(=O)N1CCC[C@H]1CNc1ccc2ncc(C3CC3)n2n1 [(S)-isopropyl 2-(((3-cyclopropylimidazo[1,2-b]pyridazin-6-yl)amino)methyl)pyrrolidine-1-carboxylate]
≤ 10 nM | C=Cc1cnc2ccc(NC[C@@H]3CCCN3C(=O)OC(C)C)nn12 [(S)-isopropyl 2-(((3-vinylimidazo[1,2-b]pyridazin-6-yl)amino)methyl)pyrrolidine-1-carboxylate]
≤ 100 nM | CC(C)OC(=O)N(C)CCNc1ccc2ncc(-c3ccc([C@@H]4CCCN4)cc3)n2n1 [(S)-isopropyl methyl(2-((3-(4-(pyrrolidin-2-yl)phenyl)imidazo[1,2-b]pyridazin-6-yl)amino)ethyl)carbamate]
≤ 100 nM | COC(=O)N1CCC[C@H]1CNc1ccc2ncc(-c3ccccc3OC)n2n1 [(S)-methyl 2-(((3-(2-methoxyphenyl)imidazo[1,2-b]pyridazin-6-yl)amino)methyl)pyrrolidine-1-carboxylate]
≤ 100 nM | COC(=O)N1CCC[C@H]1CNc1ccc2ncc(-c3ccncc3OC)n2n1 [(S)-methyl 2-(((3-(3-methoxypyridin-4-yl)imidazo[1,2-b]pyridazin-6-yl)amino)methyl)pyrrolidine-1-carboxylate]
≤ 100 nM | COC(=O)N1CCC[C@H]1CNc1ccc2ncc(-c3ccc(CN)cc3)n2n1 [(S)-methyl 2-(((3-(4-(aminomethyl)phenyl)imidazo[1,2-b]pyridazin-6-yl)amino)methyl)pyrrolidine-1-carboxylate]
≤ 1000 nM | COC(=O)N1CCC[C@H]1CNc1ccc2ncc(Br)n2n1 [(S)-methyl 2-(((3-bromoimidazo[1,2-b]pyridazin-6-yl)amino)methyl)pyrrolidine-1-carboxylate]

— patent US8969565B2, “Imidazo[1,2-b]pyridazine-based compounds, compositions comprising them, and methods of their use” (Lexicon Pharmaceuticals, Inc., priority 2012, dated 2015)
